Assay results published in US4027039A (priority 1975, dated 1977).
“And” between values parts separate entries of the source, which are not always exact repeats. Equal values may be shown once. Read-outs that look alike come from different tables or passages of the source.

Legend:
Columbia SK Polio virus = assay type: in vivo, mouse
Influenza PR 8 virus [1] = assay: Influenza PR 8 in mice, intravenous (Table 31); assay type: in vivo, mouse; settings: total dose .2 μg
Vaccinia IHD virus = assay type: in vivo, mouse
Herpes virus [2] = assay: Herpes virus in chicken eggs, single dose 24 hours pre-infection; assay type: in vivo, chick embryo
Herpes virus [3] = system: Herpes virus
Influenza PR 8 virus [4] = assay: Influenza PR 8 in mice, oral; schedule by table; late read day 6 (Table 37), 7 (33, 36), 8 (32, 35, 47), 10 (38); control fraction 18/20 (Table 32), 19/20 (Table 35), else 100%; assay type: in vivo, mouse
viral infections = assay: Antiviral screening in animals, general statements; settings: mouse, in vivo
Influenza PR 8 virus [5] = assay: Influenza PR 8 in mice, drug in drinking water (Table 34); assay type: in vivo, mouse
Influenza PR 8 virus [6] = assay: Influenza PR 8 in mice, subcutaneous; late read day 6 (Table 37), 8 (Table 47); assay type: in vivo, mouse
Vaccinia virus = assay type: in vivo, rabbit; settings: rabbit, in vivo; thiosemicarbazone
[7] = total dose .000005 μg, thiosemicarbazone
[8] = total dose .00005 μg, listed as 2-butanone thiosemicarbazone
[9] = total dose .00005 μg, thiosemicarbazone

Structure (SMILES): CCC(C)=NNC(N)=S [2-Butanone, thiosemicarbazone, 2-butanone, thiosemicarbazone]
- No. animals surviving after 5 days (Columbia SK Polio virus; total dose 3 ng): 7
- Survivors (Columbia SK Polio virus; total dose 3 ng): 0
- No. animals surviving after 5 days (Columbia SK Polio virus; total dose 30 ng): 8
- Survivors (Columbia SK Polio virus; total dose 30 ng): 0
- No. animals surviving after 5 days (Columbia SK Polio virus; total dose 300 ng): 6
- Survivors (Columbia SK Polio virus; total dose 300 ng): 1
- No. animals surviving when 18/20 of controls are dead (Influenza PR 8 virus [1]): 2
- Survivors (Influenza PR 8 virus [1]): 2
- Statistical Significance of Tail Lesions (Vaccinia IHD virus; 10 ng, day 5): < .05
- Statistical Significance of Tail Lesions (Vaccinia IHD virus; 10 ng, day 6): < .01
- Statistical Significance of Tail Lesions (Vaccinia IHD virus; 10 ng, day 7): < .05
- Statistical Significance of Tail Lesions (Vaccinia IHD virus; 10 ng, day 10): < .01
- Statistical Significance of Tail Lesions (Vaccinia IHD virus; 10 ng, day 11): < .01
- Statistical Significance of Tail Lesions (Vaccinia IHD virus; 10 ng, day 12): < .01
- Statistical Significance of Tail Lesions (Vaccinia IHD virus; 10 ng, day 14): < .01
- Statistical Significance of Tail Lesions (Vaccinia IHD virus; 10 ng, day 17): < .01
- Statistical Significance of Tail Lesions (Vaccinia IHD virus; 10 ng, day 21): < .01
- Statistical Significance of Tail Lesions (Vaccinia IHD virus; 1 μg, day 5): < .01
- Statistical Significance of Tail Lesions (Vaccinia IHD virus; 1 μg, day 6): < .01
- Statistical Significance of Tail Lesions (Vaccinia IHD virus; 1 μg, day 7): < .05
- Statistical Significance of Tail Lesions (Vaccinia IHD virus; 1 μg, day 8): < .01
- Statistical Significance of Tail Lesions (Vaccinia IHD virus; 1 μg, day 10): < .01
- Statistical Significance of Tail Lesions (Vaccinia IHD virus; 1 μg, day 11): < .01
- Statistical Significance of Tail Lesions (Vaccinia IHD virus; 1 μg, day 12): < .01
- Statistical Significance of Tail Lesions (Vaccinia IHD virus; 1 μg, day 14): < .01
- Statistical Significance of Tail Lesions (Vaccinia IHD virus; 1 μg, day 17): < .01
- Statistical Significance of Tail Lesions (Vaccinia IHD virus; 1 μg, day 21): < .01
- Statistical Significance of Tail Lesions (Vaccinia IHD virus; 10 [μg], day 6): < .01
- Statistical Significance of Tail Lesions (Vaccinia IHD virus; 10 [μg], day 7): < .05
- Statistical Significance of Tail Lesions (Vaccinia IHD virus; 10 [μg], day 8): < .05
- Statistical Significance of Tail Lesions (Vaccinia IHD virus; 10 [μg], day 10): < .01
- Statistical Significance of Tail Lesions (Vaccinia IHD virus; 10 [μg], day 11): < .05
- Statistical Significance of Tail Lesions (Vaccinia IHD virus; 10 [μg], day 12): < .05
- Statistical Significance of Tail Lesions (Vaccinia IHD virus; 10 [μg], day 14): < .05
- Statistical Significance of Tail Lesions (Vaccinia IHD virus; 10 [μg], day 17): < .01
- Statistical Significance of Tail Lesions (Vaccinia IHD virus; 10 [μg], day 21): < .01
- Statistical Significance of Tail Lesions (Vaccinia IHD virus; 100 [ng], day 5): < .05
- Statistical Significance of Tail Lesions (Vaccinia IHD virus; 100 [ng], day 6): < .01
- Statistical Significance of Tail Lesions (Vaccinia IHD virus; 100 [ng], day 7): < .01
- Statistical Significance of Tail Lesions (Vaccinia IHD virus; 100 [ng], day 8): < .01
- Statistical Significance of Tail Lesions (Vaccinia IHD virus; 100 [ng], day 10): < .01
- Statistical Significance of Tail Lesions (Vaccinia IHD virus; 100 [ng], day 11): < .01
- Statistical Significance of Tail Lesions (Vaccinia IHD virus; 100 [ng], day 12): < .01
- Statistical Significance of Tail Lesions (Vaccinia IHD virus; 100 [ng], day 14): < .01
- Statistical Significance of Tail Lesions (Vaccinia IHD virus; 100 [ng], day 17): < .01
- Statistical Significance of Tail Lesions (Vaccinia IHD virus; 100 [ng], day 21): < .01
- activity in words (Vaccinia IHD virus; mouse, in vivo): most active of the compounds tested
- Deaths on day 1 (Herpes virus [2]; 2 μg): 1
- Deaths on day 2 (Herpes virus [2]; 2 μg): 5
- Deaths on day 3 (Herpes virus [2]; 2 μg): 3
- No. dying 5-22 day (Herpes virus [2]; 2 μg): 2
- No. hatched (Herpes virus [2]; 2 μg): 1
- No. living longer than controls (Herpes virus [2]; 2 μg): 3
- Total deaths, 4th day (Herpes virus [2]; 2 μg): 9
- Deaths on day 2 (Herpes virus [2]; 20 μg): 5
- Deaths on day 3 (Herpes virus [2]; 20 μg): 1
- Deaths on day 4 (Herpes virus [2]; 20 μg): 2
- No. dying 5-22 day (Herpes virus [2]; 20 μg): 1
- No. living longer than controls (Herpes virus [2]; 20 μg): 4
- Total deaths, 4th day (Herpes virus [2]; 20 μg): 8
- Deaths on day 1 (Herpes virus [2]; .00005 μg): 2
- Deaths on day 2 (Herpes virus [2]; .00005 μg): 4
- Deaths on day 3 (Herpes virus [2]; .00005 μg): 5
- No. dying 5-22 day (Herpes virus [2]; .00005 μg): 0
- No. hatched (Herpes virus [2]; .00005 μg): 1
- No. living longer than controls (Herpes virus [2]; .00005 μg): 1
- Total deaths, 4th day (Herpes virus [2]; .00005 μg): 11
- Deaths on day 1 (Herpes virus [2]; .0005 μg): 1
- Deaths on day 2 (Herpes virus [2]; .0005 μg): 5
- Deaths on day 3 (Herpes virus [2]; .0005 μg): 3
- Deaths on day 4 (Herpes virus [2]; .0005 μg): 1
- No. dying 5-22 day (Herpes virus [2]; .0005 μg): 0
- No. hatched (Herpes virus [2]; .0005 μg): 1
- No. living longer than controls (Herpes virus [2]; .0005 μg): 2
- Total deaths, 4th day (Herpes virus [2]; .0005 μg): 10
- Deaths on day 1 (Herpes virus [2]; .005 μg): 2
- Deaths on day 2 (Herpes virus [2]; .005 μg): 4
- Deaths on day 3 (Herpes virus [2]; .005 μg): 2
- Deaths on day 4 (Herpes virus [2]; .005 μg): 3
- No. dying 5-22 day (Herpes virus [2]; .005 μg): 0
- No. living longer than controls (Herpes virus [2]; .005 μg): 1
- Total deaths, 4th day (Herpes virus [2]; .005 μg): 11
- Deaths on day 1 (Herpes virus [2]; .05 μg): 2
- Deaths on day 2 (Herpes virus [2]; .05 μg): 6
- Deaths on day 3 (Herpes virus [2]; .05 μg): 3
- No. dying 5-22 day (Herpes virus [2]; .05 μg): 1
- No. living longer than controls (Herpes virus [2]; .05 μg): 1
- Total deaths, 4th day (Herpes virus [2]; .05 μg): 11
- Deaths on day 1 (Herpes virus [2]; .5 μg): 1
- Deaths on day 2 (Herpes virus [2]; .5 μg): 3
- Deaths on day 3 (Herpes virus [2]; .5 μg): 6
- Deaths on day 4 (Herpes virus [2]; .5 μg): 2
- No. dying 5-22 day (Herpes virus [2]; .5 μg): 0
- No. living longer than controls (Herpes virus [2]; .5 μg): 0
- Total deaths, 4th day (Herpes virus [2]; .5 μg): 12
- Total no. hatched (Herpes virus [2]; all doses): 5
- Total no. living longer than controls (Herpes virus [2]; all doses): 12
- Survivors (Herpes virus [3]; mouse, in vivo): 2
- No. animals surviving after 6-9 days (Herpes virus [3]; total dose .000005 μg): 1
- No. animals surviving when 100% (or given fraction) of controls are dead (Herpes virus [3]; total dose .000005 μg): 0
- Survivors (Herpes virus [3]; total dose .000005 μg): 0
- No. animals surviving after 6-9 days (Herpes virus [3]; total dose .00005 μg): 8
- No. animals surviving when 100% (or given fraction) of controls are dead (Herpes virus [3]; total dose .00005 μg): 4
- No. animals surviving after 6-9 days (Herpes virus [3]; total dose .0005 μg): 6
- No. animals surviving when 100% (or given fraction) of controls are dead (Herpes virus [3]; total dose .0005 μg): 5
- Survivors (Herpes virus [3]; total dose .0005 μg): 4
- No. animals surviving after 6-9 days (Herpes virus [3]; total dose .005 μg): 4
- No. animals surviving when 100% (or given fraction) of controls are dead (Herpes virus [3]; total dose .05 μg): 0
- Survivors (Herpes virus [3]; total dose .05 μg): 0
- No. animals surviving after 6-10 days (Influenza PR 8 virus [4]; total dose .000005 μg): 6
- Survivors (Influenza PR 8 virus [4]; total dose .000005 μg): 0
- No. animals surviving after 6-10 days (Influenza PR 8 virus [4]; [7]): 4
- No. animals surviving when 100% (or given fraction) of controls are dead (Influenza PR 8 virus [4]; [7]): 2
- Survivors (Influenza PR 8 virus [4]; [7]): 1
- Survivors (Influenza PR 8 virus [4]; total dose .00005 μg): 4
- No. animals surviving after 6-10 days (Influenza PR 8 virus [4]; [8]): 5
- Survivors (Influenza PR 8 virus [4]; [8]): 2
- No. animals surviving after 6-10 days (Influenza PR 8 virus [4]; [9]): 8 and 4
- No. animals surviving when 100% (or given fraction) of controls are dead (Influenza PR 8 virus [4]; [9]): 4
- No. animals surviving after 6-10 days (Influenza PR 8 virus [4]; total dose .0005 μg): 2
- No. animals surviving when 100% (or given fraction) of controls are dead (Influenza PR 8 virus [4]; total dose .0005 μg): 1
- Survivors (Influenza PR 8 virus [4]; total dose .0005 μg): 1
- No. animals surviving after 6-10 days (Influenza PR 8 virus [4]; total dose .005 μg): 2
- No. animals surviving when 100% (or given fraction) of controls are dead (Influenza PR 8 virus [4]; total dose .005 μg): 1
- Survivors (Influenza PR 8 virus [4]; total dose .005 μg): 1
- Survivors (Influenza PR 8 virus [4]; total dose .005 μg, thiosemicarbazone): 0
- activity in words (viral infections): one of the most active compounds
- Survivors (Influenza PR 8 virus [5]; 0.5 Mg/ml in water, 24 h pre and 24 h post): 1
- Survivors (Influenza PR 8 virus [5]; 10 Mg/ml in water, 24 h pre and 24 h post): 2
- Survivors (Influenza PR 8 virus [5]; 24 h post-infection only, first of two printed columns): 0
- No. animals surviving after 6-8 days (Influenza PR 8 virus [6]; total dose .000005 μg): 2
- Survivors (Influenza PR 8 virus [6]; total dose .000005 μg): 0
- Survivors (Influenza PR 8 virus [6]; total dose .00005 μg): 0
- No. animals surviving after 6-8 days (Influenza PR 8 virus [6]; total dose .0005 μg): 1
- Survivors (Influenza PR 8 virus [6]; total dose .0005 μg): 1
- Survivors (Influenza PR 8 virus [6]; total dose .005 μg): 0
- effect on pox formation (Vaccinia virus): variable
